Experimental data as given in US8906904B2, “Alkoxy pyrazoles as soluble guanylate cyclase activators” (Boehringer Ingelheim International GmbH, priority 2012, dated 2014).
pEC50: −log10 of the molar value. ≈ marks a conversion by molar mass, not a printed value.

Columns and labels:
[1] = target: T1, human soluble guanylate cyclase alpha 1 and beta 1 subunits (sGC) (Homo sapiens, UniProt Q02108+Q02153); assay: sGC cellular activator assay (cGMP, HTRF); format: cell-based; conditions: CHO cells stably expressing human sGC alpha 1/beta 1, preincubated with 40 microM ODQ; cGMP readout; assay run with and without 50% human serum, Table 2 does not say which
T1 construct: expressed in transfected cells; host or cells: Chinese hamster ovary (CHO) cells, stably transfected
T1 sequence (Q02108 1-690): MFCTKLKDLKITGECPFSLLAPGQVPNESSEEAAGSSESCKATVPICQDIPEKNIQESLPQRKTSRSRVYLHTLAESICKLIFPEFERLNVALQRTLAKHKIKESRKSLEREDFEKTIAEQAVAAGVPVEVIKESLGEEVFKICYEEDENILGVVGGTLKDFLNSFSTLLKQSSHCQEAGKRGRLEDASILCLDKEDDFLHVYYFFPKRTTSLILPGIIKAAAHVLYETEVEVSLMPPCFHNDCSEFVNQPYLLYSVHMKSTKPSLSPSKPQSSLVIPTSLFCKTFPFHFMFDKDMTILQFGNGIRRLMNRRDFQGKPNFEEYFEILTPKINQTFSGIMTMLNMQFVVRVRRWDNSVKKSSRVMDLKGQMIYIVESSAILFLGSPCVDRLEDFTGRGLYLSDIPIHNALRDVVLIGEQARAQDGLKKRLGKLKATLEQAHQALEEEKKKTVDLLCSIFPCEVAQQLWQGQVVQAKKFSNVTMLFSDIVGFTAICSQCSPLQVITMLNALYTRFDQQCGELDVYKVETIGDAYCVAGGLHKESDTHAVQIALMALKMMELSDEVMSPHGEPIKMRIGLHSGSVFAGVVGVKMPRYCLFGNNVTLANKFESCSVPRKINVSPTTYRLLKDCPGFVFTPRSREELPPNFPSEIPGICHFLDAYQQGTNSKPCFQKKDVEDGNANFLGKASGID
T1 sequence (Q02153 1-619): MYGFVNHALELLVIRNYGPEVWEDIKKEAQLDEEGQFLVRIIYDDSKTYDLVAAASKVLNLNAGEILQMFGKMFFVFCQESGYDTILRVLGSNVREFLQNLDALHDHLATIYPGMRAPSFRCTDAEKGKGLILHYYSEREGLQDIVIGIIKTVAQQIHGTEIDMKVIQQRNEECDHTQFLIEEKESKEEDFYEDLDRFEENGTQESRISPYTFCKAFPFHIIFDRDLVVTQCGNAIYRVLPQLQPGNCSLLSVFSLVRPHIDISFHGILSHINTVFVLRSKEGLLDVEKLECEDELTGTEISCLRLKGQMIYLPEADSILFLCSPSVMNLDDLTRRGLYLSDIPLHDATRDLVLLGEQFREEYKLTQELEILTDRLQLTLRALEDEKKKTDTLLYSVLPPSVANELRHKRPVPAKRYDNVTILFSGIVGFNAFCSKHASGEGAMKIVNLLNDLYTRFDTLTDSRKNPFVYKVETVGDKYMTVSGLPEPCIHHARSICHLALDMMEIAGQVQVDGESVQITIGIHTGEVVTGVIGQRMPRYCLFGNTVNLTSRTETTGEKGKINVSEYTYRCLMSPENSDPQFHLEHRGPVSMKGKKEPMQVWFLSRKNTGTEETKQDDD
How it was run: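 Heme-oxidized conditions: ODQ (40 microM, 1 h) pretreatment of CHO cells stably expressing human α1/β1 sGC, in buffer containing 0.1% BSA and IBMX.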

[2] = Assessment of solubility (McIlvaine buffers, 24 h shake, UPLC-UV); format: physicochemical; conditions: kinetic from dmso stock
How it was run: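 Compounds from 10 mM DMSO stocks were shaken for 24 h at room temperature in McIlvaine buffers at pH 2.2, 4.5 and 6.8 (2.5% v/v DMSO final), then filtered. Filtrates were quantified by UPLC-UV at 254 nm against a 50:50 acetonitrile/water reference assumed fully dissolved, as a single determination.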

pEC50 [1]	solubility at 24 h ([2]; pH 2.2, aqueous buffer) [µg/mL]	solubility at 24 h ([2]; pH 4.5, aqueous buffer) [µg/mL]	solubility at 24 h ([2]; pH 6.8, aqueous buffer) [µg/mL]	SMILES
7.89	120 (≈ 206 µM)	100 (≈ 172 µM)	97 (≈ 166 µM)	CCOc1c(C(=O)O)cnn1-c1cccc(-c2cccc(C)c2OCc2cc(C)c3c(c2)CCN(C2CCOCC2)C3)n1 [Compound 169]
7.00	87 (≈ 153 µM)	69 (≈ 121 µM)	75 (≈ 132 µM)	Cc1cccc(-c2cccc(-n3ncc(C(=O)O)c3OC(C)C)n2)c1OCc1ccc2c(c1)CCN([C@H]1CCOC1)C2 [Compound 111]
7.34	110 (≈ 180 µM)	94 (≈ 154 µM)	100 (≈ 164 µM)	Cc1cccc(-c2cccc(-n3ncc(C(=O)O)c3OCC(C)C)n2)c1OCc1ccc2c(c1C)CCN(C1CCOCC1)C2 [Compound 134]
7.23	43 (≈ 70.2 µM)	92 (≈ 150 µM)	93 (≈ 152 µM)	CCOc1c(C(=O)O)cnn1-c1cccc(-c2cccc(C)c2OCc2ccc3c(c2C)CCN(C[C@H]2COC(C)(C)O2)C3)n1 [Compound 179]
7.68	130 (≈ 228 µM)	100 (≈ 175 µM)	110 (≈ 193 µM)	COc1c(C(=O)O)cnn1-c1cccc(-c2cccc(C)c2OCc2ccc3c(c2)OCCN(C2CCOCC2)C3)n1 [Compound 130]
6.80	150 (≈ 264 µM)	120 (≈ 211 µM)	110 (≈ 193 µM)	COc1c(C(=O)O)cnn1-c1cccc(-c2ccc(C)cc2OCc2ccc3c(c2C)CCN(C2CCOCC2)C3)n1 [Compound 99]
7.36	110 (≈ 180 µM)	78 (≈ 127 µM)	81 (≈ 132 µM)	COCCOc1c(C(=O)O)cnn1-c1cccc(-c2cccc(C)c2OCc2ccc3c(c2C)CCN(C2CCCOC2)C3)n1 (stereo not shown) [Compound 149]
7.77	23 (≈ 41.6 µM)	< 0.1	80 (≈ 145 µM)	COc1c(C(=O)O)cnn1-c1cccc(-c2cccc(C)c2OCc2ccc3c(c2)CCN(CC(F)(F)F)C3)n1 [Compound 11, 5-methoxy-1-(6-{3-methyl-2-[2-(2,2,2-trifluoro-ethyl)-1,2,3,4-tetrahydro-isoquinolin-6-ylmethoxy]-phenyl}-pyridin-2-yl)-1H-pyrazole-4-carboxylic acid]
6.57	150 (≈ 270 µM)	110 (≈ 198 µM)	99 (≈ 178 µM)	COc1c(C(=O)O)cnn1-c1cccc(-c2ccc(C)cc2OCc2ccc3c(c2)CCN(C2CCOCC2)C3)n1 [Compound 98]
6.24	110 (≈ 187 µM)	90 (≈ 153 µM)	88 (≈ 150 µM)	CCOc1c(C(=O)O)cnn1-c1cccc(-c2cccc(C)c2OCc2ccc3c(c2C)CCN(CCOCCO)C3)n1 [Compound 168]
7.07	60 (≈ 97.9 µM)	66 (≈ 108 µM)	73 (≈ 119 µM)	CCOc1c(C(=O)O)cnn1-c1cccc(-c2cccc(C)c2OCc2ccc3c(c2C)CCN(C2COC(C)(C)OC2)C3)n1 [Compound 155]
7.55	120 (≈ 200 µM)	96 (≈ 160 µM)	95 (≈ 159 µM)	CCOc1c(C(=O)O)cnn1-c1cccc(-c2cccc(C)c2OCc2ccc3c(c2C)CCN(C[C@H]2COCCO2)C3)n1 [Compound 170]
7.46	110 (≈ 202 µM)	58 (≈ 107 µM)	86 (≈ 158 µM)	COc1c(C(=O)O)cnn1-c1cccc(-c2cccc(C)c2OCc2ccc3c(c2F)CCN(C2COC2)C3)n1 [Compound 177]
7.51	110 (≈ 184 µM)	93 (≈ 156 µM)	97 (≈ 163 µM)	Cc1cccc(-c2cccc(-n3ncc(C(=O)O)c3OC(C)C)n2)c1OCc1ccc2c(c1C)CCN(C1CCOCC1)C2 [Compound 104]
6.80	160 (≈ 288 µM)	150 (≈ 270 µM)	160 (≈ 288 µM)	COc1c(C(=O)O)cnn1-c1cccc(-c2cccc(C)c2OCc2cc3c(cc2C)CN(C2CCOCC2)C3)n1 [Compound 143]
7.85	97 (≈ 163 µM)	74 (≈ 124 µM)	74 (≈ 124 µM)	CCOc1c(C(=O)O)cnn1-c1cccc(-c2cccc(C)c2OCc2ccc3c(c2C)CCN(C[C@@H]2CCCOC2)C3)n1 [Compound 152]
7.52	64 (≈ 103 µM)	43 (≈ 69.1 µM)	41 (≈ 65.8 µM)	COc1c(C(=O)O)cnn1-c1cccc(-c2cccc(C)c2OCc2cc3c(c(C(F)(F)F)c2)CN(C2CCOCC2)CC3)n1 [Compound 158]
8.18	110 (≈ 177 µM)	51 (≈ 81.9 µM)	64 (≈ 103 µM)	COc1c(C(=O)O)cnn1-c1cccc(-c2cccc(C)c2OCc2ccc3c(c2C(F)(F)F)CCN(C2CCOCC2)C3)n1 [Compound 166]
7.24	110 (≈ 193 µM)	89 (≈ 157 µM)	97 (≈ 171 µM)	CCOc1c(C(=O)O)cnn1-c1cccc(-c2cccc(C)c2OCc2ccc3c(c2C)CN(C2CCOCC2)C3)n1 [Compound 119]
6.89	110 (≈ 180 µM)	98 (≈ 160 µM)	85 (≈ 139 µM)	COCCOc1c(C(=O)O)cnn1-c1cccc(-c2cccc(C)c2OCc2ccc3c(c2C)CCN(C2CCOCC2)C3)n1 [Compound 151]
7.89	130 (≈ 223 µM)	98 (≈ 168 µM)	97 (≈ 166 µM)	CCOc1c(C(=O)O)cnn1-c1cccc(-c2cccc(C)c2OCc2cc(C)c3c(c2)CCN(C2CCCOC2)C3)n1 (stereo not shown) [Compound 173]
7.55	85 (≈ 142 µM)	36 (≈ 60.3 µM)	57 (≈ 95.5 µM)	CCOc1c(C(=O)O)cnn1-c1cccc(-c2cccc(C)c2OCc2ccc3c(c2CC)CCN(C2CCOCC2)C3)n1 [Compound 154]
6.96	96 (≈ 158 µM)	78 (≈ 128 µM)	81 (≈ 133 µM)	COc1c(C(=O)O)cnn1-c1cccc(-c2cccc(C)c2OCc2ccc3c(c2)CCN([C@H]2CC[C@@]4(CCCO4)CC2)C3)n1 [Compound 103]
6.74	100 (≈ 195 µM)	84 (≈ 164 µM)	87 (≈ 170 µM)	COc1c(C(=O)O)cnn1-c1cccc(-c2cccc(C)c2OCc2ccc3c(c2)CCN(C(C)C)C3)n1 [Compound 13]
7.23	94 (≈ 162 µM)	70 (≈ 121 µM)	82 (≈ 141 µM)	COc1c(C(=O)O)cnn1-c1cccc(-c2cccc(C(F)(F)F)c2OCc2ccc3c(c2)CCN(C2COC2)C3)n1 [Compound 9]
7.77	95 (≈ 163 µM)	79 (≈ 136 µM)	79 (≈ 136 µM)	CCOc1c(C(=O)O)cnn1-c1cccc(-c2cccc(C)c2OCc2ccc3c(c2C)CCN([C@H]2CCCOC2)C3)n1 [Compound 129]
7.60	94 (≈ 148 µM)	70 (≈ 110 µM)	62 (≈ 97.4 µM)	CCOc1c(C(=O)O)cnn1-c1cccc(-c2cccc(C)c2OCc2cc3c(c(C(F)(F)F)c2)CN(C2CCOCC2)CC3)n1 [Compound 157]
7.40	110 (≈ 193 µM)	90 (≈ 158 µM)	93 (≈ 164 µM)	COc1c(C(=O)O)cnn1-c1cccc(-c2cccc(C)c2OCc2cc3c(cc2C)CN(C2CCOCC2)CC3)n1 [Compound 121]
